Test results as given in patent US20060135415A1, “Immunomodulation and effect on cell processes relating to serotonin family receptors and the blood-brain barrier” (priority 2002, published 2006).

Experiments:
[1] = test system: ConA stimulated human lymphocytes; test: Human mitogenic (ConA) stimulation, 3H-thymidine incorporation; format: cell-based; conditions: for relief of phenelzine-induced inhibition: phenelzine-inhibited cells, reagents 100 μM (FIG. 6); for proliferative response, reagent added alone: reagent 100 μM (FIG. 6); for stimulation of ConA-activated human PBLs: reagents at 400 μM, time course (FIG. 4)
Description: Blood from healthy volunteers was drawn using venipuncture, using Vacutainer collection sets and heparinized collection vials. The blood was diluted 1:1 using HBSS to a total volume of 30 ml in 50 ml conical tubes (Fisher Scientific, Co., Pittsburgh, Pa.). […] Cells from the buffy coats were collected and the residual Histopaque was washed away using repeated centrifugations in HBSS. After washes, cells were resuspended at 5 million cells per ml in RPMI, supplemented with 2% FBS. To remove adherent cells, the suspension was plated onto a 6 well flat-bottom plate (Corning Costar), 3 ml/well, and incubated for 2 hours at 37° C., 5% CO2. Non-adherent cells were harvested after this incubation, were counted and resuspended in RPMI supplemented with 10% human serum (Sigma).
All drugs were pre-plated before the cell suspension was added onto each well of a 96-well round-bottom plate. All experimental conditions were assayed in at least triplicate. Cells suspended in RPMI supplemented with 10% human serum were plated at 100,000 cells per well to a final volume of 200 μl. […] Control samples received no ConA stimulation. The plates were incubated at 37° C. and 5% CO2.

[2] = test system: allogeneic stimulation of human lymphocytes; test: Human mixed lymphocyte reaction (allogeneic stimulation), 3H-thymidine; format: cell-based; conditions: allogeneic stimulation, harvest 120 hours, drug titration (FIGS. 7B, 8B, 9B)
Description: Blood from two healthy, non-related, donors was taken as described above. Peripheral blood mononuclear cells were isolated as described previously elsewhere. The adherent cells were separated from the suspension cells as described previously for both donors. Suspension cells from both donors (donors A and B) were used as responders. The remaining adherent cells from each of the donors were used as stimulators against a different donor (suspension A against adherent B and adherent A against suspension B). The stimulator cells were irradiated at 35 Gy. Drugs were pre-plated onto 96 well, U-bottom plates in triplicate. 200,000 “stimulator” cells in RPMI supplemented with 10% human serum were then plated in each well. 200,000 “responder” cells in the same medium were then plated over stimulators to a final volume of 200 μl/well. Background controls received either no stimulator cells, or no responder cells. The plates were incubated at 37° C. and 5% CO2. 1 μCi of tritiated thymidine was added to each well after 4.5 days, and the plates were harvested 12 hours later.

[3] = test system: RPMI 8226 multiple myeloma cells; test: RPMI 8226 cell viability and proliferation (trypan blue, MTT, 3H-thymidine); format: cell-based, human; conditions: 3H-thymidine uptake, drug titration (FIGS. 19-25, 31, 32)
Description: The human plasmacytoma (multiple myeloma) cell line, RPMI 8226 (American Type Culture Collection, Manassas, Va.), was cultured in RPMI 1640 supplemented with 10 mM HEPES, 1 mM sodium pyruvate, 4.5 g/L glucose, 1.5 g/L bicarbonate and 20% FBS (non-heat inactivated).
Cell proliferation was assayed by three methods—Trypan Blue Exclusion was used to quantify the number of viable cells in culture; 3-(4,5-dimethylthiazol-2-yl)-2,5-diphenyl tetrazolium bromide (MTT) reduction was used to assay mitochondrial activity (and thus cell viability); and ^3H-Thymidine uptake was employed to assay for active DNA synthesis.
Three separate indicators of cell proliferation were employed to study the effects of 5-HT receptor modulating agents on the human multiple myeloma cell line, RPMI 8226. Cells were plated at 4 separate densities and were treated with LY53587 (an antagonist of the 5-HT2A/2B/2C receptors) at a range of concentrations. The exclusion of trypan blue dye was used as an indicator of cell viability. Cell numbers were then plotted against the concentration of drug added.
MTT reduction was also used as an indicator of cell viability (more specifically, mitochondrial activity). Absorbance values at OD570 were then plotted against drug concentration. Finally, DNA synthesis was assayed, through the measurement of ^3H-thymidine uptake, and counts per minute (CPMs) were plotted against drug concentration.
Culturing and administration of drugs and ^3H-thymidine were performed as described elsewhere herein.

RPMI-8226 cells = test: Cytospin histochemistry (H&E, bis-benzamide) for chromatin; format: cell-based, human; conditions: 9 hour treatments, 50 μM SB compounds, 2 μM camptothecin (FIGS. 28, 29)
Description: 2.0×10^5 RPMI-8226 cells were cultured, in 6-well culture plates, in the presence of the indicated drug concentrations, in a total of 5 mL RPMI-1640 supplemented with 10% FBS. Each well was harvested in its entirety and divided into two identical samples for cytospins.
1.0×10^5 RPMI-8226 cells from each treatment group were loaded into Cyto-funnels and centrifuged at 500 rpm for 4 minutes with medium acceleration. Slides were then fixed through graded methanol in PBS (100%, 5 minutes; 80%, 5 minutes; 50%, 5 minutes), washed for 5 minutes in PBS and stored in PBS at 4° C. until stained.
Cytospun slides were stained with Hematoxylin and Eosin, followed by the nuclear stain, bis-benzamide, rinsed and mounted according to standard staining protocols. Slides were visualized under both brightfield and fluorescent light to generate matched images of the same slide field (see, e.g., FIGS. 28 and 29).

[4] = test system: T cells in macrophage-conditioned media; test: Macrophage media-conditioning study, T cell proliferation in conditioned media; format: cell-based, mouse; conditions: assay shown in FIG. 1
[5] = test system: murine lymphocytes (BALB/c responders, C57/B6 stimulators); test: Murine mixed lymphocyte reaction (BALB/c vs. C57BL6); format: cell-based, mouse; conditions: FIG. 10
Description: MLRs were performed essentially as described in Current Protocols in Immunology (1999, Section 3.12.6-3.12.7). That is, the primary spleen cells obtained from C57/B6J mice were used as stimulators. They were purified as described in Current Protocols in Immunology (1999, Section 3.1.5), and were irradiated (35 Gy) at the Hahnemann Hospital (Philadelphia, Pa.) blood bank facility. Primary spleen cells obtained from BALB/c/BYJ were depleted from the adherent cells using a nylon wool column, and were used as responders.
The various inhibitors were pre-plated onto 96 well, U-bottom plates and all experimental conditions were assayed at least in triplicate. 100,000 C57/B6 cells in RPMI medium, supplemented with 10% FBS, were plated into each well. 200,000 of BALB/c/BYJ cells were plated over the stimulator cells, to a final volume of 200 μl/well. Background controls received either no BALB/c cells, or no C57/B6 cells. One micro Ci of tritiated thymidine was added to each well after 4 days, and the plates were harvested 12 hours later.

Row | Compound | relief of phenelzine-induced inhibition ([1]; 1 μg/ml ConA) | proliferative response, reagent added alone ([1]; 1 μg/ml ConA) | stimulation of ConA-activated human PBLs [1] | restoration of T cell proliferation in conditioned media [4] | outcome of murine MLR [5] | further results
1 | Cc1cc2c(cc1Cl)N(C(=O)Nc1ccc(Oc3cccnc3C)nc1)CC2 [SB 242084] |  |  |  |  |  | inhibitory profile on mitogenic stimulation ([1]; 1 μg/ml ConA, harvest 72 h, drug added at time=0 or 48 hours (FIG. 12)): retained the complete inhibitory profile; activation / proliferative response ([1]; 5 μg/ml ConA, harvest 72 hours, drug titration (FIGS. 7A, 8A, 9A, 17, 33)): inhibit the activation response at pharmacologically relevant concentrations; activation / proliferative response [2]: inhibit the activation response at pharmacologically relevant concentrations; growth / proliferation of RPMI 8226 cells [3]: strong inhibition of growth; chromatin condensation / fragmentation (apoptosis) (RPMI-8226 cells): induced programmed cell death comparable to that induced by the topoisomerase I inhibitor, camptothecin; chromatin condensation / fragmentation (apoptosis) (RPMI-8226 cells; listed as SB242084): condensed and fragmented chromatin
2 | N[C@@H](Cc1c[nH]c2ccccc12)C(=O)O [tryptophan] | had very little effect | enhanced the proliferative response | enhanced the maximal stimulation of the cells | had no effect |  | proliferative response ([1]; 0.1 μg/ml ConA, harvest 72 hours (FIG. 5A)): augments the proliferative response; proliferative response ([1]; highest ConA dose 10 μg/ml, harvest 72 hours (FIG. 5C)): no enhancement at the highest level
3 | CNc1cc(NS(=O)(=O)c2ccc(N)cc2)nc(NC)n1 [Ro 04-679] |  |  |  |  | had no effects on the outcome of the assay | 
4 | 5-methyl hydroxytryptamine |  |  |  |  | slight enhancement | 
5 | NCCc1c[nH]c2ccc(O)cc12 [serotonin, 5-hydroxytryptamine] | caused the assay to rebound to baseline levels | did not | enhanced the maximal stimulation of the cells | only marginally restored the assay |  | proliferative response ([1]; differing ConA concentrations 0.1-10 μg/ml, harvest 72 hours (FIG. 5)): has no effect on the assay until the highest dose of ConA
